US20220033407A1, “N-(pyridin-2-ylsulfonyl)cyclopropanecarboxamide Derivatives and their Use in the Treatment of Disease” (NOVARTIS AG, priority 2018, published 2022)

Target: T1, delF508-CFTR-HRP (Homo sapiens, UniProt P13569, DEL508-508)
T1 construct: expressed in transfected cells
Assay: Measurement of delF508-CFTR-HRP surface expression in CFBE41o- cells (HRP luminescence);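 as to DelF508-CFTR-HRP Amax %: percent efficacy relative to a reference CFTR corrector compound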
Assay type: cell-based
Settings: for EC50: mean of at least two replicates; for Emax: CFBE41o-, read-out: DelF508-CFTR-HRP Amax %
Description: Measurement of delF508-CFTR-HRP Surface Expression in CFBE41o-Cells
This assay quantifies the cell surface expressions of the mutant CFTR channel using an extracellular HRP tag.
A cellular assay was developed to measure surface expression of horseradish peroxidase (HRP) tagged delF508-CFTR in the human bronchial epithelial immortalized CFBE41o-cell line (Phuan, P. W., et al, (2014) Molecular Pharmacology 86:42-51). Specifically, the HRP sequence was inserted into the fourth extracellular loop of delF508-CFTR and stably expressed in CFBE41o-cells. Cells were seeded in 384 well plate at a density of 5000 cells/well and incubated at 37° C. for 12 to 24 hours in medium (Gibco MEM #11095, 10% FBS, 10 mM HEPES, […], 200 μg/mL G418, 3 μg/mL Puromycin). The delF508-CFTR-HRP expression was induced with 500 ng/mL doxycycline (Sigma D-9891, dissolved in H2O and sterile filtered) in medium and the cells were incubated at 37° C. for 48 h. Old medium was removed and fresh medium was added containing 500 ng/mL doxycycline and unknown test compound at required test concentration in DMSO, not exceeding 0.5% final DMSO concentration. The highest concentration tested was 10 μM with a 10-point concentration response curve using a 3-fold dilution. After addition of compounds, the cells were incubated for 24 h at 37° C. On the final day, cells were washed four times in PBS containing 1 mM MgCl2 and 0.1 mM CaCl2. HRP-Substrate (SuperSignal ELISA Pico, Fisher #37069) 20 μl/well was added and the luminescence signal was determined (Viewlux, Perkin Elmer). Light was emitted upon addition of exogenous HRP-Substrate only when delF508-CFTR-HRP reached the cell surface and the HRP tag was accessible to the HRP-Substrate (note: HRP-Substrate cannot cross the lipid bilayer to reach delF508-CFTR-HRP misfolded within the cell).
The median activity for the lowest concentration of the compounds on each assay plate was calculated and this value was used to normalize the signal for each well on the respective plate. Three replicates at each concentrations for every compound were run to determine one EC50. The median value was determined and used to calculate compound activities as described below. Effective half maximal values (EC50) were calculated for each compound by performing logistic regression on measured dose-response data points using the equation: […]
where “Y” is the observed activity, “Bottom” is the lowest observed value, “Top” is the highest observed value, and the “Hill coefficient” gives the largest absolute value of the slope. The curve fitting is carried out by a curve fitting program implemented at GNF using Matlab (Mathworks). The dose response curves also were used to calculate Fold Change (FC) using the equation: […]
Compound efficacy relative to the reference compound 3-(6-(1-(2,2-difluorobenzo[d][1,3]dioxol-5-yl)cyclopropane-1-carboxamido)-3-methylpyridin-2-yl)benzoic acid was determined using the following formula: […]

T1 sequence (P13569 with tags, fused parts or gaps DEL508-508): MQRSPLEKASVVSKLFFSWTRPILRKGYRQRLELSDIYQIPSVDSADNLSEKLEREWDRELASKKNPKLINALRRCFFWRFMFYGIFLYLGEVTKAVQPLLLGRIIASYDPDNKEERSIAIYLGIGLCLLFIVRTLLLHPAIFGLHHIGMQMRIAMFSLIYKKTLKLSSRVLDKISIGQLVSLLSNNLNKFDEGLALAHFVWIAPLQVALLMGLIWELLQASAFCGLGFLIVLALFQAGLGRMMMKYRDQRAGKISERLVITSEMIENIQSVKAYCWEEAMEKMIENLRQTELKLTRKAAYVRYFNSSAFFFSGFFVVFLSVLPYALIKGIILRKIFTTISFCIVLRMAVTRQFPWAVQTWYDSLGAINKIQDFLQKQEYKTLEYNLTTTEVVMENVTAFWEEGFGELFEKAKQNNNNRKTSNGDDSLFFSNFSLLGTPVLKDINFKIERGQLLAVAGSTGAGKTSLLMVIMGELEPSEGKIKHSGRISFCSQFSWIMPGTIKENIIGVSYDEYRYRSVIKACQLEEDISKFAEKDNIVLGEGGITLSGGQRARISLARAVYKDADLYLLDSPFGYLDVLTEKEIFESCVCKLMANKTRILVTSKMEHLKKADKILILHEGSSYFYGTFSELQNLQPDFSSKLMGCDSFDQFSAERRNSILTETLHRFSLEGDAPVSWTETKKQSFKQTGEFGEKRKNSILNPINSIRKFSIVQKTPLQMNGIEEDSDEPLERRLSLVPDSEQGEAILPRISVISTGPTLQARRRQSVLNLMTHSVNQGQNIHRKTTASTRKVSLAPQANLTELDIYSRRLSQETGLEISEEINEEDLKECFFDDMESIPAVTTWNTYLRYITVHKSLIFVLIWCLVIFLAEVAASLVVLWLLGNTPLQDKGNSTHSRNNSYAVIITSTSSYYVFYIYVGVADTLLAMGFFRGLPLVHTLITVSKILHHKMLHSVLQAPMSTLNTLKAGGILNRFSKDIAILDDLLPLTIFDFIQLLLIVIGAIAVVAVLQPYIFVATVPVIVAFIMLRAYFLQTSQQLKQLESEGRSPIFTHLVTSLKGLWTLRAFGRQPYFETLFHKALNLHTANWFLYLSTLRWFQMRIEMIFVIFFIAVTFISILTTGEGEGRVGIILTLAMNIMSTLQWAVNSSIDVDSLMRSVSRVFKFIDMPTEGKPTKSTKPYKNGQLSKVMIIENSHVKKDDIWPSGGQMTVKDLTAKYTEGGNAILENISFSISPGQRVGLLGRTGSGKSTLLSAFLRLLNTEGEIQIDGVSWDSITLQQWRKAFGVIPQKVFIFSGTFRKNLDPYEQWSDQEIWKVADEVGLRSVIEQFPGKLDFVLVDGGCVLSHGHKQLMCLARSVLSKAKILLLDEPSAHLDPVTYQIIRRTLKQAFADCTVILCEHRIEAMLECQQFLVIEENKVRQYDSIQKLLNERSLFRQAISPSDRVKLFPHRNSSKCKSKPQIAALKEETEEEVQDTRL

| DelF508-CFTR-HRP Amax % [%] | EC50 [nM] | Emax [%] | SMILES |
| --- | --- | --- | --- |
| 678.4 | 330 | – | CC(C)(C)C1CCC(Nc2ccc(Cl)cc2OC2(C(=O)NS(=O)(=O)c3cccc(N4CC[C@H](O)C4)n3)CC2)CC1 (single isomer, unassigned) [Example 9-5-2] |
| 726.4 | 570 | – | CC1(C)CCN(c2ccc(Cl)cc2OC2(C(=O)NS(=O)(=O)c3cccc(N4CCC(C)(O)C4)n3)CC2)CC1 (single isomer, unassigned) [Example 9-39-1, 1-(5-Chloro-2-(4,4-dimethylpiperidin-1-yl)phenoxy)-N-((6-(3-hydroxy-3-methylpyrrolidin-1-yl)pyridin-2-yl)sulfonyl)cyclopropane-1-carboxamide] |
| 493.9 | 840 | – | CC1(C)CCN(c2ccc(Cl)cc2OC2(C(=O)NS(=O)(=O)c3cccc(N4CCC(C)(O)C4)n3)CC2)CC1 (single isomer, unassigned) [Example 9-39-2, 1-(5-Chloro-2-(4,4-dimethylpiperidin-1-yl)phenoxy)-N-((6-(3-hydroxy-3-methylpyrrolidin-1-yl)pyridin-2-yl)sulfonyl)cyclopropane-1-carboxamide] |
| 545.9 | 1170 | – | CC1(C)CCN(c2ccc(Cl)cc2OC2(C(=O)NS(=O)(=O)c3cccc(N4CCCC(C)(O)C4)n3)CC2)CC1 (single isomer, unassigned) [Example 9-43-1, 1-(5-Chloro-2-(4,4-dimethylpiperidin-1-yl)phenoxy)-N-((6-(3-hydroxy-3-methylpiperidin-1-yl)pyridin-2-yl)sulfonyl)cyclopropane-1-carboxamide] |
| 367.4 | 1920 | – | CC1(C)CCN(c2ccc(Cl)cc2OC2(C(=O)NS(=O)(=O)c3cccc(N4CCCC(C)(O)C4)n3)CC2)CC1 (single isomer, unassigned) [Example 9-43-2, 1-(5-Chloro-2-(4,4-dimethylpiperidin-1-yl)phenoxy)-N-((6-(3-hydroxy-3-methylpiperidin-1-yl)pyridin-2-yl)sulfonyl)cyclopropane-1-carboxamide] |
| 473.8 | 1860 | – | Cc1ccc(C2CCC(C)(C)OC2)c(OC2(C(=O)NS(=O)(=O)c3cccc(N4CCC(O)(C(F)(F)F)CC4)n3)CC2)c1 (single isomer, unassigned) [Example 11-2-1, 1-(2-(6,6-Dimethyltetrahydro-2H-pyran-3-yl)-5-methylphenoxy)-N-((6-(4-hydroxy-4-(trifluoromethyl)piperidin-1-yl)pyridin-2-yl)sulfonyl)cyclopropane-1-carboxamide] |
| 242.9 | 2650 | – | Cc1ccc(C2CCC3(CCC3)OC2)c(OC2(C(=O)NS(=O)(=O)c3cccc(N4CCC(C)(O)CC4)n3)CC2)c1 (single isomer, unassigned) [Example 11-4-2, N-((6-(4-hydroxy-4-methylpiperidin-1-yl)pyridin-2-yl)sulfonyl)-1-(5-methyl-2-(5-oxaspiro[3.5]nonan-7-yl)phenoxy)cyclopropane-1-carboxamide] |
| – | 4610 | 119 | Cc1ccc(C2CCCCC2)c(OC2(C(=O)NS(=O)(=O)c3cccc(N4CCCC(N)C4)n3)CC2)c1 (stereo not drawn) [Example 2-13, N-((6-(3-Aminopiperidin-1-yl)pyridin-2-yl)sulfonyl)-1-(2-cyclohexyl-5-methylphenoxy)cyclopropanecarboxamide] |
| – | 360 | 293 | COC(=O)C(C)(C)CN1CCN(c2cccc(S(=O)(=O)NC(=O)C3(Oc4cc(C)ccc4C4CCCCC4)CC3)n2)CC1 [Example 2-38, Methyl 3-(4-(6-(N-(1-(2-cyclohexyl-5-methylphenoxy)cyclopropanecarbonyl)sulfamoyl)pyridin-2-yl)piperazin-1-yl)-2,2-dimethylpropanoate] |
| – | 1120 | 556 | Cc1ccc(C2CCCCC2)c(OC2(C(=O)NS(=O)(=O)c3cccc(N4CCC(NC(=O)OC(C)(C)C)CC4)n3)CC2)c1 [Example 2-43, Tert-butyl (1-(6-(N-(1-(2-cyclohexyl-5-methylphenoxy)cyclopropanecarbonyl)sulfamoyl)pyridin-2-yl)piperidin-4-yl)carbamate] |
| – | 4520 | 158 | Cc1ccc(C2CC(F)(F)C2)c(OC2(C(=O)NS(=O)(=O)c3cccc(N4CC(C)(O)C4)n3)CC2)c1 [Example 4-3, 1-(2-(3,3-Difluorocyclobutyl)-5-methylphenoxy)-N-((6-(3-hydroxy-3-methylazetidin-1-yl)pyridin-2-yl)sulfonyl)cyclopropanecarboxamide] |
| – | 4770 | 84 | Cc1ccc(C)c(OC2(C(=O)NS(=O)(=O)c3cccc(NC[C@@H](C)O)n3)CCCC2)c1 [Example 4-4, (R)-1-(2,5-dimethylphenoxy)-N-((6-((2-hydroxypropyl)amino)pyridin-2-yl)sulfonyl)cyclopentane-1-carboxamide] |
| – | 3390 | 160 | C=C(c1ccc(F)cc1OC1(C(=O)NS(=O)(=O)c2cccc(N3CCN(c4ccccc4)CC3)n2)CC1)C(F)(F)F [Example 4-18, 1-(5-Fluoro-2-(3,3,3-trifluoroprop-1-en-2-yl)phenoxy)-N-((6-(4-phenylpiperazin-1-yl)pyridin-2-yl)sulfonyl)cyclopropane-1-carboxamide] |
| – | 1090 | 626 | Cc1ccc(C2CC3(CCC3)C2)c(OC2(C(=O)NS(=O)(=O)c3cccc(N4CC[C@H](O)C4)n3)CC2)c1 [Example 4-19, (S)-N-((6-(3-Hydroxypyrrolidin-1-yl)pyridin-2-yl)sulfonyl)-1-(5-methyl-2-(spiro[3.3]heptan-2-yl)phenoxy)cyclopropane-1-carboxamide] |
| – | 2060 | 376 | O=C(NS(=O)(=O)c1cccc(N2CC[C@H](O)C2)n1)C1(Oc2cc(Cl)ccc2-c2ccc3ccoc3c2)CC1 [Example 5-4, (S)-1-(2-(Benzofuran-6-yl)-5-chlorophenoxy)-N-((6-(3-hydroxypyrrolidin-1-yl)pyridin-2-yl)sulfonyl)cyclopropane-1-carboxamide] |
| – | 1770 | 280 | O=C(NS(=O)(=O)c1cccc(N2CC[C@H](O)C2)n1)C1(Oc2cc(Cl)ccc2-c2cccc(OC(F)(F)F)c2)CC1 [Example 5-6, (S)-1-((4-Chloro-3′-(trifluoromethoxy)-[1,1′-biphenyl]-2-yl)oxy)-N-((6-(3-hydroxypyrrolidin-1-yl)pyridin-2-yl)sulfonyl)cyclopropane-1-carboxamide] |
| – | 1380 | 279 | O=C(NS(=O)(=O)c1cccc(N2CC[C@H](O)C2)n1)C1(Oc2cc(Cl)ccc2-c2ccc(F)c(C(F)(F)F)c2)CC1 [Example 5-7] |
| – | 2470 | 204 | O=C(NS(=O)(=O)c1cccc(N2CC[C@H](O)C2)n1)C1(Oc2cc(Cl)ccc2-c2ccc3occc3c2)CC1 [Example 5-12, (S)-1-(2-(Benzofuran-5-yl)-5-chlorophenoxy)-N-((6-(3-hydroxypyrrolidin-1-yl)pyridin-2-yl)sulfonyl)cyclopropane-1-carboxamide] |
| – | 2080 | 513 | Cc1ccc(-c2cc(C(F)(F)F)ccn2)c(OC2(C(=O)NS(=O)(=O)c3cccc(N4CC[C@H](O)C4)n3)CC2)c1 [Example 5-13, (S)—N-((6-(3-Hydroxypyrrolidin-1-yl)pyridin-2-yl)sulfonyl)-1-(5-methyl-2-(4-(trifluoromethyl)pyridin-2-yl)phenoxy)cyclopropane-1-carboxamide] |
| – | 2540 | 361 | O=C(NS(=O)(=O)c1cccc(N2CC[C@H](O)C2)n1)C1(Oc2cc(Cl)ccc2-c2ccc3c(c2)OC(F)(F)O3)CC1 [Example 5-15, (S)-1-(5-Chloro-2-(2,2-difluorobenzo[d][1,3]dioxol-5-yl)phenoxy)-N-((6-(3-hydroxypyrrolidin-1-yl)pyridin-2-yl)sulfonyl)cyclopropane-1-carboxamide] |

| SMILES | DelF508-CFTR-HRP Amax % [%] | EC50 [nM] | Emax [%] |
| --- | --- | --- | --- |
| CC(C)COc1cccc(-c2ccc(Cl)cc2OC2(C(=O)NS(=O)(=O)c3cccc(N4CCC(C)(C#N)CC4)n3)CC2)c1 [Example 5-3, 1-((4-Chloro-3′-isobutoxy-[1,1′-biphenyl]-2-yl)oxy)-N-((6-(4-cyano-4-methylpiperidin-1-yl)pyridin-2-yl)sulfonyl)cyclopropane-1-carboxamide] | – | 750 | 286 |
